Experimental data from ChEMBL document CHEMBL5360657, “Discovery of the TLR7/8 Antagonist MHV370 for Treatment of Systemic Autoimmune Diseases” (ACS Med Chem Lett, 2023).

Legend:
[1] = Volume of distribution at steady state in mouse at 1 mg/ml, po or iv; assay type: ADME, organism-based; conditions: in vivo
[2] = AUC in mouse at 1 mg/ml, iv; assay type: ADME; parameters: dose 1 mg/ml, route iv; conditions: in vivo
[3] = MRT in mouse at 1 mg/ml, po or iv; assay type: ADME, organism-based; conditions: in vivo
[4] = Cmax in mouse at 1 mg/ml, po; assay type: ADME; parameters: dose 1 mg/ml, route po; conditions: in vivo
[5] = AUC in mouse at 1 mg/ml, po; assay type: ADME; parameters: dose 1 mg/ml, route po; conditions: in vivo
[6] = Oral bioavailability in mouse at 1 mg/ml; assay type: ADME, organism-based; conditions: in vivo
[7] = Volume of distribution at steady state in rat at 1 mg/ml, po or iv; assay type: ADME, organism-based; conditions: in vivo
[8] = AUC in rat at 1 mg/ml, iv; assay type: ADME; parameters: dose 1 mg/ml, route iv; conditions: in vivo
[9] = MRT in rat at 1 mg/ml, po or iv; assay type: ADME, organism-based; conditions: in vivo
[10] = Cmax in rat at 1 mg/ml, po; assay type: ADME; parameters: dose 1 mg/ml, route po; conditions: in vivo
[11] = AUC in rat at 1 mg/ml, po; assay type: ADME; parameters: dose 1 mg/ml, route po; conditions: in vivo
[12] = Oral bioavailability in rat at 1 mg/ml; assay type: ADME, organism-based; conditions: in vivo
Toll-like receptor 7 [13] = biological target: T1, Toll-like receptor 7 (Homo sapiens, UniProt Q9NYK1); assay: Antagonist activity at TLR7 in human PBMC cells assessed as reduction in IFN alpha measured after 20 hrs by AlphaLISA assay; assay type: cell-based
T1 sequence (Q9NYK1 whole entry): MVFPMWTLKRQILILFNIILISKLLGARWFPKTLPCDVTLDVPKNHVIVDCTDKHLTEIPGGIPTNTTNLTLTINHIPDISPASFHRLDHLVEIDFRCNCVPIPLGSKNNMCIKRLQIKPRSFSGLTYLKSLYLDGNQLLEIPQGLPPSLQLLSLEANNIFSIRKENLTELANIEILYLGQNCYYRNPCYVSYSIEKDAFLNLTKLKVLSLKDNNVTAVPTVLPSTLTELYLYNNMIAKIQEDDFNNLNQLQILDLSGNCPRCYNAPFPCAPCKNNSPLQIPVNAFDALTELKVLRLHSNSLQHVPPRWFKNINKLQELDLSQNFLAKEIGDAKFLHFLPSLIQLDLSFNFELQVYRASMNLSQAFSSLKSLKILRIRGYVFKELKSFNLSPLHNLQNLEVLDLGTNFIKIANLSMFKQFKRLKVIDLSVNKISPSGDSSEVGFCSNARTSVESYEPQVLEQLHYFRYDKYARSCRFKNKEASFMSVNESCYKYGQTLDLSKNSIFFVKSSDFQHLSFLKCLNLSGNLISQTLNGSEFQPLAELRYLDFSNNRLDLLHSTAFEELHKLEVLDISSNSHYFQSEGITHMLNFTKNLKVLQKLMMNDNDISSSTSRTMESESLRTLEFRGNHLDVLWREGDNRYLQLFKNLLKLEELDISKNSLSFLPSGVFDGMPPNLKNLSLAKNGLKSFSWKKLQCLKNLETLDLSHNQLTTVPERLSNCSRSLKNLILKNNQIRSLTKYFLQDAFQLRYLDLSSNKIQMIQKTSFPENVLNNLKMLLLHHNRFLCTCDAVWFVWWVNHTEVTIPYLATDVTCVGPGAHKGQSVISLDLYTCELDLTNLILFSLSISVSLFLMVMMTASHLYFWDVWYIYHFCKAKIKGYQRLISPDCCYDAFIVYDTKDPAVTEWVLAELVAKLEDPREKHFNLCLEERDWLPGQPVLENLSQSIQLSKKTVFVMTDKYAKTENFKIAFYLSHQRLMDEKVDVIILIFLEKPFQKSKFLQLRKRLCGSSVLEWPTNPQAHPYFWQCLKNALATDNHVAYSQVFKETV

[14] = Cmax in mouse at 3 mg/kg, iv; assay type: ADME, organism-based; parameters: dose 3 mg/kg, route iv; conditions: in vivo
Toll-like receptor 7 [15] = biological target: T2, Toll-like receptor 7 (Mus musculus, UniProt P58681); assay: Antagonist activity at TLR7 in mouse Splenocyte assessed as reduction in IFN-alpha level measured after 20 hrs by Spectramax M5 method; assay type: cell-based
T2 sequence (P58681 whole entry): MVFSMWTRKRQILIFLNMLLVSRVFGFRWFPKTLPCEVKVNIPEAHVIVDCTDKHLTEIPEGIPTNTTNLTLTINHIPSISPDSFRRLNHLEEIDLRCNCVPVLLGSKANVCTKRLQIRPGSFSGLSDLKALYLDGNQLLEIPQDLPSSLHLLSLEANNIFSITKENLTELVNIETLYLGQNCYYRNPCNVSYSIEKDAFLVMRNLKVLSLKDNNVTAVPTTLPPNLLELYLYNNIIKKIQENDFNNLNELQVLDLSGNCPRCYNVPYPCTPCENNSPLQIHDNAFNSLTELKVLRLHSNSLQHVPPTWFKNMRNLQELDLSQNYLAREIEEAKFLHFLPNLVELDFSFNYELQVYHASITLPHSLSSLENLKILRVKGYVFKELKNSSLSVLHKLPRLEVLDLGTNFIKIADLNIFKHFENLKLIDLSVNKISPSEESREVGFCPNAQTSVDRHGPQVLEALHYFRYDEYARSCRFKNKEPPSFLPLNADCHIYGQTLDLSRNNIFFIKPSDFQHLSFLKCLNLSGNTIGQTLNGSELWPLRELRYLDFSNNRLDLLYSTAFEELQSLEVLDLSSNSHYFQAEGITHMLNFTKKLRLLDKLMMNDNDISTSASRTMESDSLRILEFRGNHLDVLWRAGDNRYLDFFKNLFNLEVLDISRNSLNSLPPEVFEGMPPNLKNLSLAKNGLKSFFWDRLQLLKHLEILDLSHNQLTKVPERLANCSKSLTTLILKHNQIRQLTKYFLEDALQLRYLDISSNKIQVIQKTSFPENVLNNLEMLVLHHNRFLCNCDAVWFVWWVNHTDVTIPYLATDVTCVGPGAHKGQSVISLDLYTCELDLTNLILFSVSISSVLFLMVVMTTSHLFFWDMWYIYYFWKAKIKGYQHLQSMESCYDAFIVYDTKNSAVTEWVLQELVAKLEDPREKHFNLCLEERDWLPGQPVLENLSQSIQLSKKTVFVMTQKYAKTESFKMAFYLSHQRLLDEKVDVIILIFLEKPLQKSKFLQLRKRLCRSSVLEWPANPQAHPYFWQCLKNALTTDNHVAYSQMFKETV

Toll-like receptor 7 [16] = biological target: T2, Toll-like receptor 7; assay: Antagonist activity at TLR7 in mouse Whole blood cell assessed as reduction in IFN-alpha level measured after 20 hrs by AlphaLISA method; assay type: tissue-based
[17] = biological target: Toll-like receptor 7 (Mus musculus) (UniProt P58681); assay: In vivo antagonist activity against TLR7 in mouse assessed as suppression of IFN alpha level at 3 mg/kg, po measured at 3 hrs by LC-MS/MS analysis
[18] = biological target: Toll-like receptor 7 (Mus musculus) (UniProt P58681); assay: In vivo antagonist activity against TLR7 in mouse assessed as suppression of IFN alpha level at 10 mg/kg, po measured at 3 hrs by LC-MS/MS analysis
[19] = biological target: Toll-like receptor 7 (Mus musculus) (UniProt P58681); assay: In vivo antagonist activity against TLR7 in mouse assessed as suppression of IFN alpha level at 1 mg/kg, po measured at 3 hrs by LC-MS/MS analysis

IC50 (Toll-like receptor 7 [13])	Cmax [14]	SMILES	Vdss [1]	AUC [2]	MRT [3]	Cmax [4]	AUC [5]	bioavailability [6]	Vdss [7]	AUC [8]	MRT [9]	Cmax [10]	AUC [11]	bioavailability [12]	IC50 (Toll-like receptor 7 [15])	IC50 (Toll-like receptor 7 [16])	Activity [17]	Activity [18]	Activity [19]
17 nM	–	CCNCC(=O)NC12CCC(Cn3nc(C)c4c3CCN(c3cc(C)nc5c3cnn5C)C4)(CC1)CC2	1 L/kg	9.28 µM·h	2.4 h	515 nM	4.63 µM·h	10%	3 L/kg	1.78 µM·h	2.8 h	48 nM	0.618 µM·h	12%	–	–	–	–	–
20 nM	321 nM	Cc1cc(N2CCc3c(c(C)nn3CC34CCC(N)(CC3)CC4)C2)c2cnn(C)c2n1	–	–	–	–	–	–	–	–	–	–	–	–	74 nM	–	–	–	–
–	–	Cc1cc(N2CCc3c(c(C)nn3CC34CCC(NC(=O)[C@@H]5COCCN5)(CC3)CC4)C2)c2cnn(C)c2n1 [MHV-370]	0.7 L/kg	5.67 µM·h	1 h	1860 nM	9.16 µM·h	32%	1.3 L/kg	1.78 µM·h	1.2 h	282 nM	2.82 µM·h	52%	9 nM	51 nM	141 ng/mL	550 ng/mL	25 ng/mL
